Values of other authors as cited in US20200121704A1, “METHODS FOR TREATING HYPERTENSION AND ARTERIAL STIFFNESS” (THE REGENTS OF THE UNIVERSITY OF COLORADO, A BODY CORPORATE, priority 2017, published 2020).

Key:
old mice = conditions: supplementation; cited from earlier work
Klotho deficient mice = conditions: cited from earlier work
ET-1 = conditions: animal models of hypercholesterolemia and cardiac hypertrophy; cited from earlier work
endothelial cells = conditions: cited from earlier work

SMILES: NC(=O)c1ccc[n+]([C@@H]2O[C@H](COP(=O)([O-])O)[C@@H](O)[C@H]2O)c1 [NMN, nicotinamide mononucleotide]
- Aortic stiffening (old mice): reverses aortic stiffening in old mice to youthful levels

SMILES: O=C(Nc1ccccc1-c1cn2c(CN3CCNCC3)csc2n1)c1cnc2ccccc2n1 [SRT1720]
- Development of hypertension (Klotho deficient mice; Klotho deficient mice (a model of accelerated aging)): protects against the development of hypertension
- Development of arterial stiffness (Klotho deficient mice; klotho deficient mice): prevented the development of arterial stiffness

SMILES: Oc1ccc(C=Cc2cc(O)cc(O)c2)cc1 [resveratrol]
- Circulating ET-1 levels (ET-1): decreases circulating ET-1 levels
- Secretion of ET-1 by endothelial cells (endothelial cells): suppressed
